Source: patent US10681909B2, “Herbicidal triazoles” (FMC Corporation, priority 2014, dated 2020)

Columns and labels:
[1] = test system: panicum, fall; test: Test E preemergence; assay type: in vivo, Panicum dichotomiflorum; details: scale 0 to 100
Source text: (§1) Seeds of plant species selected from corn (Zea mays), soybean (Glycine max), lambsquarters (Chenopodium album), poinsettia, wild (wild poinsettia, Euphorbia heterophylla), pigweed, palmer (palmer pigweed, Amaranthus palmeri), waterhemp (common waterhemp, Amaranthus rudis), surinam grass (Brachiaria decumbens), crabgrass, large (large crabgrass, Digitaria sanguinalis), crabgrass, Brazilian (Brazilian crabgrass, Digitaria horizontalis), panicum, fall (fall panicum, Panicum dichotomiflorum), foxtail, giant (giant foxtail, Setaria faberii), foxtail, green (green foxtail, Setaria viridis), goosegrass (Eleusine indica), johnsongrass (Sorghum halepense), ragweed (common ragweed, Ambrosia elatior), barnyardgrass (Echinochloa crus-galli), sandbur (southern sandbur, Cenchrus echinatus), arrowleaf sida (Sida rhombifolia), ryegrass, Italian (Italian ryegrass, Lolium multiflorum), dayflower, VA (Virginia dayflower, Commelina virginica), field bindweed (Convolvulus arvensis), cocklebur (common cocklebur, Xanthium strumarium), morningglory (Ipomoea coccinea), nightshade (eastern black nightshade, Solanum ptycanthum), kochia (Kochia scoparia), nutsedge, yellow (yellow nutsedge, Cyperus esculentus), smartweed (ladysthumb smartweed, Polygonum persicaria), velvetleaf (Abutilon theophrasti), horseweed (Conyza canadensis), and beggarticks (hairy beggarticks, Bidens pilosa), were planted into a silt loam soil and treated preemergence with test chemicals formulated in a non-phytotoxic solvent mixture which included a surfactant.
(§2) At the same time, plants from these crop and weed species and also waterhemp_RES1, (ALS & Triazine resistant common waterhemp, Amaranthus rudis), and waterhemp_RES2, (ALS & HPPD resistant common waterhemp, Amaranthus rudis) were planted in pots containing Sunshine Redi-Earth® planting medium comprising spaghnum peat moss, vermiculite, starter nutrients and dolomitic limestone were treated with postemergence applications of test chemicals formulated in the same manner. Plants ranged in height from 2 to 18 cm for postemergence treatments (1- to 4-leaf stage). Treated plants and controls were maintained in a greenhouse for 14 to 21 d, after which time all species were compared to controls and visually evaluated. Plant response ratings, summarized in Table E, are based on a scale of 0 to 100 where 0 is no effect and 100 is complete control. A dash (-) response means no test result.

[2] = test system: ryegrass, Italian; test: Test E preemergence; assay type: in vivo, Lolium multiflorum; details: scale 0 to 100
Source text: as §1, §2

[3] = test system: foxtail, giant; test: Test E preemergence; assay type: in vivo, Setaria faberii; details: scale 0 to 100
Source text: as §1, §2

[4] = test system: dayflower, VA; test: Test E preemergence; assay type: in vivo, Commelina virginica; details: scale 0 to 100
Source text: as §1, §2

[5] = test system: crabgrass, large; test: Test E preemergence; assay type: in vivo, Digitaria sanguinalis; details: scale 0 to 100
Source text: as §1, §2

[6] = test system: crabgrass, Brazilian; test: Test E postemergence; assay type: in vivo, Digitaria horizontalis; details: Brazil, scale 0 to 100
Source text: as §1, §2

[7] = test system: kochia; test: Test E preemergence; assay type: in vivo, Kochia scoparia; details: scale 0 to 100
Source text: as §1, §2

[8] = test system: soybean; test: Test E preemergence; assay type: in vivo, Glycine max; details: scale 0 to 100
Source text: as §1, §2

[9] = test system: surinam grass; test: Test E preemergence; assay type: in vivo, Brachiaria decumbens; details: scale 0 to 100
Source text: as §1, §2

[10] = test system: ryegrass, Italian; test: Test E postemergence; assay type: in vivo, Lolium multiflorum; details: scale 0 to 100
Source text: as §1, §2

[11] = test system: waterhemp; test: Test E preemergence; assay type: in vivo, Amaranthus rudis; details: scale 0 to 100
Source text: as §1, §2

[12] = test system: kochia; test: Test E postemergence; assay type: in vivo, Kochia scoparia; details: scale 0 to 100
Source text: as §1, §2

[13] = test system: ragweed; test: Test E preemergence; assay type: in vivo, Ambrosia elatior; details: scale 0 to 100
Source text: as §1, §2

[14] = test system: ragweed; test: Test E postemergence; assay type: in vivo, Ambrosia elatior; details: scale 0 to 100
Source text: as §1, §2

[15] = test system: beggarticks; test: Test E preemergence; assay type: in vivo, Bidens pilosa; details: scale 0 to 100
Source text: as §1, §2

[16] = test system: dayflower, VA; test: Test E postemergence; assay type: in vivo, Commelina virginica; details: scale 0 to 100
Source text: as §1, §2

[17] = test system: nutsedge, yellow; test: Test E preemergence; assay type: in vivo, Cyperus esculentus; details: scale 0 to 100
Source text: as §1, §2

[18] = test system: pigweed, palmer; test: Test E postemergence; assay type: in vivo, Amaranthus palmeri; details: scale 0 to 100
Source text: as §1, §2

[19] = test system: corn; test: Test E preemergence; assay type: in vivo, Zea mays; details: scale 0 to 100
Source text: as §1, §2

[20] = test system: foxtail, green; test: Test E preemergence; assay type: in vivo, Setaria viridis; details: scale 0 to 100
Source text: as §1, §2

SMILES: CCOc1nc(-c2ccccc2)nn1Cc1ccnc(C(F)(F)F)c1 [Compound 27]
- Plant response rating ([1]; 16 g ai/ha): 65
- Plant response rating ([1]; 31 g ai/ha): 100
- Plant response rating ([1]; 62 g ai/ha): 100
- Plant response rating ([1]; 125 g ai/ha): 100
- Plant response rating ([2]; 16 g ai/ha): 0
- Plant response rating ([2]; 31 g ai/ha): 20
- Plant response rating ([2]; 62 g ai/ha): 60
- Plant response rating ([2]; 125 g ai/ha): 95
- Plant response rating ([3]; 16 g ai/ha): 75
- Plant response rating ([3]; 31 g ai/ha): 95
- Plant response rating ([3]; 62 g ai/ha): 100
- Plant response rating ([3]; 125 g ai/ha): 100
- Plant response rating ([4]; 16 g ai/ha): 10
- Plant response rating ([4]; 31 g ai/ha): 10
- Plant response rating ([4]; 62 g ai/ha): 10
- Plant response rating ([4]; 125 g ai/ha): 50
- Plant response rating ([5]; 16 g ai/ha): 98
- Plant response rating ([5]; 31 g ai/ha): 100
- Plant response rating ([5]; 62 g ai/ha): 100
- Plant response rating ([5]; 125 g ai/ha): 100
- Plant response rating ([6]; 16 g ai/ha): 20
- Plant response rating ([6]; 31 g ai/ha): 20
- Plant response rating ([6]; 62 g ai/ha): 30
- Plant response rating ([6]; 125 g ai/ha): 40
- Plant response rating ([7]; 16 g ai/ha): 65
- Plant response rating ([7]; 31 g ai/ha): 90
- Plant response rating ([7]; 62 g ai/ha): 100
- Plant response rating ([7]; 125 g ai/ha): 100
- Plant response rating ([8]; 16 g ai/ha): 0
- Plant response rating ([8]; 31 g ai/ha): 0
- Plant response rating ([8]; 62 g ai/ha): 0
- Plant response rating ([8]; 125 g ai/ha): 15
- Plant response rating ([9]; 16 g ai/ha): 0
- Plant response rating ([9]; 31 g ai/ha): 0
- Plant response rating ([9]; 62 g ai/ha): 10
- Plant response rating ([9]; 125 g ai/ha): 15
- Plant response rating ([10]; 16 g ai/ha): 20
- Plant response rating ([10]; 31 g ai/ha): 30
- Plant response rating ([10]; 62 g ai/ha): 30
- Plant response rating ([10]; 125 g ai/ha): 40
- Plant response rating ([11]; 16 g ai/ha): 100
- Plant response rating ([11]; 31 g ai/ha): 100
- Plant response rating ([11]; 62 g ai/ha): 100
- Plant response rating ([11]; 125 g ai/ha): 100
- Plant response rating ([12]; 16 g ai/ha): 95
- Plant response rating ([12]; 31 g ai/ha): 100
- Plant response rating ([12]; 62 g ai/ha): 95
- Plant response rating ([12]; 125 g ai/ha): 95
- Plant response rating ([13]; 16 g ai/ha): 50
- Plant response rating ([13]; 31 g ai/ha): 35
- Plant response rating ([13]; 62 g ai/ha): 90
- Plant response rating ([13]; 125 g ai/ha): 80
- Plant response rating ([14]; 16 g ai/ha): 50
- Plant response rating ([14]; 31 g ai/ha): 50
- Plant response rating ([14]; 62 g ai/ha): 50
- Plant response rating ([14]; 125 g ai/ha): 60
- Plant response rating ([15]; 16 g ai/ha): 0
- Plant response rating ([15]; 31 g ai/ha): 0
- Plant response rating ([15]; 62 g ai/ha): 0
- Plant response rating ([15]; 125 g ai/ha): 0
- Plant response rating ([16]; 16 g ai/ha): 50
- Plant response rating ([16]; 31 g ai/ha): 60
- Plant response rating ([16]; 62 g ai/ha): 70
- Plant response rating ([16]; 125 g ai/ha): 75
- Plant response rating ([17]; 16 g ai/ha): 0
- Plant response rating ([17]; 31 g ai/ha): 0
- Plant response rating ([17]; 62 g ai/ha): 0
- Plant response rating ([17]; 125 g ai/ha): 15
- Plant response rating ([18]; 16 g ai/ha): 98
- Plant response rating ([18]; 31 g ai/ha): 98
- Plant response rating ([18]; 62 g ai/ha): 100
- Plant response rating ([18]; 125 g ai/ha): 98
- Plant response rating ([19]; 16 g ai/ha): 0
- Plant response rating ([19]; 31 g ai/ha): 0
- Plant response rating ([19]; 62 g ai/ha): 25
- Plant response rating ([19]; 125 g ai/ha): 50
- Plant response rating ([20]; 16 g ai/ha): 75
- Plant response rating ([20]; 31 g ai/ha): 100
- Plant response rating ([20]; 62 g ai/ha): 100
- Plant response rating ([20]; 125 g ai/ha): 100

SMILES: COc1nc(-c2ccc(Cl)cc2)nn1Cc1ccnc(C(F)(F)F)c1 [Compound 28]
- Plant response rating ([6]; 31 g ai/ha): 40
- Plant response rating ([6]; 62 g ai/ha): 50
- Plant response rating ([6]; 125 g ai/ha): 50
- Plant response rating ([6]; 250 g ai/ha): 50
- Plant response rating ([10]; 31 g ai/ha): 10
- Plant response rating ([10]; 62 g ai/ha): 20
- Plant response rating ([10]; 125 g ai/ha): 25
- Plant response rating ([10]; 250 g ai/ha): 30
- Plant response rating ([12]; 31 g ai/ha): 90
- Plant response rating ([12]; 62 g ai/ha): 95
- Plant response rating ([12]; 125 g ai/ha): 95
- Plant response rating ([12]; 250 g ai/ha): 95
- Plant response rating ([14]; 31 g ai/ha): 40
- Plant response rating ([14]; 62 g ai/ha): 40
- Plant response rating ([14]; 125 g ai/ha): 40
- Plant response rating ([14]; 250 g ai/ha): 50
- Plant response rating ([16]; 31 g ai/ha): 60
- Plant response rating ([16]; 62 g ai/ha): 70
- Plant response rating ([16]; 125 g ai/ha): 70
- Plant response rating ([16]; 250 g ai/ha): 70
- Plant response rating ([18]; 31 g ai/ha): 100
- Plant response rating ([18]; 62 g ai/ha): 90
- Plant response rating ([18]; 125 g ai/ha): 90
- Plant response rating ([18]; 250 g ai/ha): 95
